From patent publication US5780441A, “Sphingoglycolipid compounds and therapeutic uses thereof” (Kirin Beer Kabushiki Kaisha, priority 1993, dated 1998)

Key:
B16 mouse melanoma cells = experiment: Tumor growth inhibition in mice subcutaneously inoculated with B16 mouse melanoma cells; assay type: in vivo, mouse (BDF1 female); conditions: 0.1 mg/kg i.v. days 1, 5, 9; maximum during 20 days
Description: ii) Anti-tumor effect of the compound according to the present invention on mice subcutaneously inoculated with B16 mouse melanoma cells.
Experiment was performed with BDF1 female mice (6 weeks) purchased from NIPPON SLC K.K., which were divided into groups consisting of 6 animals. […]. The subcutaneous tumor volumes [(length×width×height)/2] were measured on days 8, 12, 16 and 20 after implantation to determine the tumor growth inhibiting rate (TGIR) of each sample. TGIR was calculated from the following formula: […]
wherein C: tumor volume in the control group, and
T: tumor volume in the sample adminitered groups.
In this connection, Compounds 1-6 and 7-9 were tested in the same time, respectively.

[1] = system: mixed lymphocyte culture reaction (spleen cells of C57BL/6 and BALB/C mice); experiment: Mixed lymphocyte culture reaction (MLR); assay type: cell-based, mouse (C57BL/6 stimulator, BALB/C responder); conditions: 42 hours
Summary of the method: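 Mouse one-way MLR: mitomycin C-treated (50 μg/ml, 30 min) C57BL/6 spleen cells stimulated BALB/C responder spleen cells, 2×10^6 cells/ml each, cultured 42 h at 37 °C with sample. ³H-thymidine (0.5 μCi/well) incorporation over a further 8 h gave MLR activating rate as % of vehicle uptake.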

mouse bone marrow cells = experiment: In vitro mouse bone marrow cell-proliferation-promoting effect (3H-TdR uptake); assay type: cell-based, mouse (BDF1 female); conditions: 4 days
Summary of the method: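 Femoral bone marrow monocytes from 6-week female BDF1 mice (Lympholite M fraction, 1×10^6 cells/ml in 10% FCS RPMI 1640) cultured with sample for 4 days at 37 °C, 5% CO2. 3H-TdR (0.5 μCi/well) added for final 6 h; uptake ratio versus vehicle reported as activation rate.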

mouse splenic lymphocyte = experiment: In vitro mouse splenic lymphocyte-proliferation-stimulating effect (3H-TdR uptake); assay type: cell-based, mouse (BDF1 female); conditions: 2 days
Summary of the method: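 Spleen cells from 6-week-old female BDF1 mice, 2×10^6 cells/ml in 10% FCS RPMI 1640, cultured with vehicle or sample 2 days at 37° C, 5% CO2. ^3H-TdR (0.5 μCi/well) uptake over 6 h by scintillation counting, expressed as % of vehicle.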

lethally irradiated mice = experiment: Radioprotective effect: life-span prolongation of lethally irradiated mice; assay type: in vivo, mouse (BDF1 female); conditions: 0.1 mg/kg i.v. days 0, 4, 8, 9 Gy X-ray, groups of 10
Description: Life-span-prolonging effects of the present compounds on lethally irradiated mice.
Experiment was performed with BDF1 female mice (6 weeks old) purchased from NIPPON SLC K.K., which were divided into groups consisting of 10 animals. Mice were irradiated generally with 9 Gy of X-ray with an X-ray generating apparatus, Hitachi, MBR-1520R (radiation day: day 0). Samples at a dose of 0.1 mg/kg were administered into tail vein on days 0, 4 and 8 in order to observe the mortality of the animals for 40 days.
In the table, two experiments are separated by the broken line.

[2] = system: P388 mouse leukemia cells; experiment: Life-span-prolonging (anti-tumor) effect on mice subcutaneously inoculated with P388 mouse leukemia cells; assay type: in vivo, mouse (CDF1 female); conditions: 0.1 mg/kg i.v. on days 1, 5 and 9; for Survival days ave. ± s. d.: all marked ** (p < 0.01); for T/C (%): survival vs vehicle
Summary of the method: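 CDF1 female mice (6 weeks), 5 per group, inoculated subcutaneously with P388 leukemia cells; life-span prolongation assessed. Lentinan and picibanil given intravenously on days 1, 3, 5, 7 and 9 after implantation; sizofilan given subcutaneously on days 1 through 9. Statistics by Mann-Whitney test.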

Row | Compound | Maximum tumor growth inhibiting rate, TGIR (%) (B16 mouse melanoma cells) | MLR activating rate (%) ([1]; 1 × 10^0 μg/ml, 2520 min) | MLR activating rate (%) ([1]; 1 × 10^-1 μg/ml, 2520 min) | Uptake of 3H-TdR (% of control), bone marrow cells (mouse bone marrow cells; 10^-1 μg/ml, 5760 min) | Uptake of 3H-TdR (% of control), bone marrow cells (mouse bone marrow cells; 10^-2 μg/ml, 5760 min) | Uptake of 3H-TdR (% of control), splenic lymphocytes (mouse splenic lymphocyte; 10^0 μg/ml, 2880 min) | Uptake of 3H-TdR (% of control), splenic lymphocytes (mouse splenic lymphocyte; 10^-1 μg/ml, 2880 min) | Uptake of 3H-TdR (% of control), splenic lymphocytes (mouse splenic lymphocyte; 10^-2 μg/ml, 2880 min) | Uptake of 3H-TdR (% of control), splenic lymphocytes (mouse splenic lymphocyte; 10^-3 μg/ml, 2880 min) | Number of surviving mice (lethally irradiated mice; day 10) [mice] | Number of surviving mice (lethally irradiated mice; day 15, 0.1 mg/kg) [mice] | Number of surviving mice (lethally irradiated mice; day 20, 0.1 mg/kg) [mice] | Number of surviving mice (lethally irradiated mice; day 25, 0.1 mg/kg) [mice] | Number of surviving mice (lethally irradiated mice; day 30, 0.1 mg/kg) [mice] | Number of surviving mice (lethally irradiated mice; day 35, 0.1 mg/kg) [mice] | Number of surviving mice (lethally irradiated mice; day 40, 0.1 mg/kg) [mice] | Survival days ave. ± s. d. [2] [days] | T/C (%) [2] [%] | also measured
1 | CCCCCCCCCCCCCCCCCCCCCC[C@@H](O)C(=O)N[C@@H](CO[C@H]1O[C@H](CO)[C@H](O)[C@H](O[C@H]2O[C@H](CO)[C@H](O)[C@H](O)[C@H]2NC(C)=O)[C@H]1O[C@H]1O[C@H](CO)[C@@H](O)[C@H](O)[C@H]1O)[C@H](O)[C@H](O)CCCCCCCCCCCC(C)C [Compound 5, O-(N-acetyl-2-amino-2-deoxy-α-D-galactopyranosyl)-(1→3)-O-[α-D-glucopyranosyl-(1→2)]-O-α-D-galactopyranosyl-(1→1)-(2S,3S,4R)-2-amino-N-[(R)-2-hydroxytetracosanoyl]-16-methyl-1,3,4-heptadecanetriol] | 86.8 | 189 | 176 | 330 % of control | 283 % of control | 889 % of control | 764 % of control | 612 % of control | 592 % of control | 10 | 8 | 7 | 7 | 7 | 7 | 7 | 15.2 ± 1.1 | 119 | –
2 | CCCCCCCCCCCCCCCCCCCCCC[C@@H](O)C(=O)N[C@@H](CO[C@H]1O[C@H](CO)[C@H](O)[C@H](O[C@H]2O[C@H](CO)[C@H](O)[C@H](O)[C@H]2NC(C)=O)[C@H]1O[C@H]1O[C@H](CO)[C@@H](O)[C@H](O)[C@H]1O)[C@H](O)[C@H](O)CCCCCCCCCCCCCC [Compound 6, O-(N-acetyl-2-amino-2-deoxy-α-D-galactopyranosyl)-(1→3)-O-[α-D-glucopyranosyl-(1→2)]-O-α-D-galactopyranosyl-(1→1)-(2S,3S,4R)-2-amino-N-[(R)-2-hydroxytetracosanoyl]-1,3,4-octadecanetriol] | 91.2 | 228 | 194 | 431 % of control | 142 % of control | 883 % of control | 979 % of control | 649 % of control | 543 % of control | – | 10 | 8 | 8 | 8 | 8 | 8 | 15.8 ± 1.1 | 123 | Number of surviving mice (lethally irradiated mice; day 10, 0.1 mg/kg): 10 mice
3 | CCCCCCCCCCCCCCCCCCCCCC[C@@H](O)C(=O)N[C@@H](CO[C@H]1O[C@H](CO)[C@H](O)[C@H](O[C@H]2O[C@H](CO)[C@H](O)[C@H](O)[C@H]2NC(C)=O)[C@H]1O[C@H]1O[C@H](CO)[C@@H](O)[C@H](O)[C@H]1O)[C@H](O)[C@H](O)CCCCCCCCCCCC(C)C [Compound 7, O-(N-acetyl-2-amino-2-deoxy-α-D-galactopyranosyl)-(1→3)-O-[α-D-glucopyranosyl-(1→2)]-O-α-D-galactopyranosyl-(1→1)-(2S,3S,4R)-2-amino-N-[(R)-2-hydroxytetracosanoyl]-16-methyl-1,3,4-heptadecanetriol] | 78.1 | 234 | 195 | 451 % of control | 478 % of control | 927 % of control | – | 705 % of control | 593 % of control | 10 | 8 | 6 | 3 | 3 | 3 | 3 | 15.8 ± 0.9 | 123 | –
4 | O-(N-acetyl-2-amino-2-deoxy-α-D-galactopyranosyl)-(1→3)-O-[α-D-glucopyranosyl-(1→2)]-O-α-D-galactopyranosyl-(1→1)-(2S,3S,4R)-2-amino-N-[(R)-2-hydroxytetracosanoyl]-16-methyl-1,3,4-octadecanetriol [Compound 9] | 74.8 | – | – | – | – | – | – | – | – | 10 | – | – | – | – | – | – | 16.4 ± 1.8 | 128 | MLR activating rate (%) ([1]; 1 × 10^0 μg/ml): 247%; MLR activating rate (%) ([1]; 1 × 10^-1 μg/ml): 205%; Uptake of 3H-TdR (% of control), bone marrow cells (mouse bone marrow cells; 10^-1 μg/ml): 286 % of control; Uptake of 3H-TdR (% of control), bone marrow cells (mouse bone marrow cells; 10^-2 μg/ml): 91 % of control; Uptake of 3H-TdR (% of control), splenic lymphocytes (mouse splenic lymphocyte; 10^0 μg/ml): 902 % of control; Uptake of 3H-TdR (% of control), splenic lymphocytes (mouse splenic lymphocyte; 10^-1 μg/ml): 924 % of control; Uptake of 3H-TdR (% of control), splenic lymphocytes (mouse splenic lymphocyte; 10^-3 μg/ml): 513 % of control; Number of surviving mice (lethally irradiated mice; day 15): 8 mice; Number of surviving mice (lethally irradiated mice; day 20): 5 mice; Number of surviving mice (lethally irradiated mice; day 25): 3 mice; Number of surviving mice (lethally irradiated mice; day 30): 3 mice; Number of surviving mice (lethally irradiated mice; day 35): 3 mice; Number of surviving mice (lethally irradiated mice; day 40): 3 mice
